Source: patent US5846823A, “Expression of human D4 dopamine receptors in stable cell lines” (Allelix Biopharmaceuticals, priority 1996, dated 1998)

Biological target: T1, human D4 receptor (Homo sapiens, UniProt P21917, DEL265-296)
T1 construct: expressed in transfected cells
T1 sequence (P21917 with tags, fused parts or gaps DEL265-296): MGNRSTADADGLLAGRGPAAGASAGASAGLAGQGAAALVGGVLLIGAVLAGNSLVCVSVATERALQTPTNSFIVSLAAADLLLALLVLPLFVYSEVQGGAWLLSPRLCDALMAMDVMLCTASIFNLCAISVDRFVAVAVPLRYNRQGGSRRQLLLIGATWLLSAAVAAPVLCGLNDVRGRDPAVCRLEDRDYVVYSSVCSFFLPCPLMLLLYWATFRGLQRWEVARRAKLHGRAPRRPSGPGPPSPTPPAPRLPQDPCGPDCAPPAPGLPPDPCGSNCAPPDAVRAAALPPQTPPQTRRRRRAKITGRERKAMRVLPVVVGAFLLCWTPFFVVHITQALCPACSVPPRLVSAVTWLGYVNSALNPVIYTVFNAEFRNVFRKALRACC
Test: [3H]Spiperone ligand binding assay (Scatchard analysis) on membranes of stable D4 cell line
Details: stably expressed human D4 receptor, Scatchard analysis (FIG. 4)
Method: Cell membranes were prepared from 150 mM tissue culture dishes by suspending the cells in assay buffer [50 mM Tris-HCl, pH 7.4 containing 5 mM EDTA, 1.5 mM CaCl2, 5 mM MgCl2, 5 mM KCl, 120 NaCl]. The cells were homogenized using a Teflon pestle. Unbroken cells and nuclei were pelleted at 39,000×g for 15 minutes and the resulting pellet was resuspended in assay buffer at a concentration of 150-250 μg protein/ml.
Assays were terminated by washing 3×4 ml with cold 50 mM Tris-HCl, pH 7.4, followed by rapid filtration through a cell harvester and filters were monitored for tritium using the L56000SC (Beckman) counter. Binding data was analyzed using the GRAFIT software package.

O=C(CCCN1CCC2(CC1)C(=O)NCN2c1ccccc1)c1ccc(F)cc1 [[^3 H]-labelled spiperone, spiperone]
maximum spiperone-binding of the D4 receptor: 4,344 fmol/mg protein
